Laboratory results published in publication PMC12247024, “PCFT‐Independent Cellular Uptake of Cyclic Cell‐Penetrating Peptide‐Conjugated Folic Acid” (Chembiochem, 2025).
One block for each compound: values may come before it. Positions of bridges follow the written chain, without caps; N, C: chain ends. Residues, ends and D or L forms follow the SMILES beside them.

Key:
[1] = test system: IL‐1β and IFN‐β production in HD‐11 cells; test: Cytokine release (ELISA) upon IBDV infection; assay type: cell-based, chicken; details: HD‐11, IBDV at TCID50 for 1 h, then folic acid 20 μM or cTAT‐folic acid 4.5 μM, n = 3, p < 0.01
Experimental: A modified live IBDV vaccine, UNIVAX‐BDmild strain (ST12) from MSD Animal Health, was reconstituted with10 mL of PBS, and 500 μL aliquots were stored at −80 °C, according to previously reported procedures.^[ [25] ^] An aliquot of the vaccine was added to a tissue culture‐treated T‐25 flask containing confluent HD‐11 cells, and the flask was incubated at 37 °C with 5% CO2 for 1 h to reproduce the virus and to obtain multiplicity of infection (MOI = 1). Following this, 5 mL of media was added, and the cells were incubated for 72 h under the same conditions. After that, the supernatant was extracted, centrifuged for 10 min at 1000 × g, and 500 μL aliquots were taken out and kept at −80 °C to evaluate 50% tissue culture infective‐dose assay (TCID50) in HD‐11. […] The plate was incubated at 37 °C with 5% CO2 for 4 h, and TCID50 was evaluated by MTS assay, as described above.
HD‐11 and RAW 264.7 cells were cultured in folic acid free RPMI containing 10% FBS and 1% penicillin–[…] solution. […] After 24 h of incubation, cell culture supernatant were collected, and production of chicken IL‐1β and IFN‐β cytokines in HD‐11 was evaluated in triplicate by ELISA kits purchased from Genorise Scientific Inc. (Berwyn, PA 19 312, United States). The production of mouse IL‐1β, TNF‐α and IL‐10 was quantified in RAW 264.7 cells in triplicates by ELISA assay. […]

[2] = RP‐HPLC ACN elution (relative hydrophobicity); assay type: physicochemical; details: PFP column, water/acetonitrile gradient 5%–95% with 0.1% TFA, detection 220 nm, used by the paper as measure of overall hydrophobicity
Excerpt: Peptides were purified using a reverse‐phase high‐performance liquid chromatography (RP‐HPLC) system, Agilent Technologies (Santa Clara, CA, USA), with water and acetonitrile gradient (5%–95%), containing 0.1% TFA as the mobile phase. Pentafluorophenyl (PFP) column was used as the stationary phase, and samples were detected at the absorbance of 220 nm. Electronic spray ionization‐mass spectrometry (ESI‐MS) was used to determine the molecular weights of the synthesized peptides. Mass spectrometry data were provided by the AIMS Mass Spectrometry Laboratory at the University of Toronto. The peptide conjugates were characterized by electrospray ionization mass spectrometry (ESI‐MS) with agreement between the predicted and experimental molecular weights (Table 1). The peptides, cTAT‐folic acid conjugates, and fluorescein‐labeled conjugates were assessed for the peptide purity by analytical RP‐HPLC system (Figure S6–S11, Supporting Information). The broader peaks, peak splitting, and lower signaling intensity of cyclic peptide and their conjugates in the chromatograms are due to the limited interactions of the peptides with the HPLC columns. The appearance of double peaks for TAMRA conjugated linear and cyclic peptides and of folic acid is likely due to the use of 5‐ and 6‐TAMRA isomer, since isomeric dye conjugated molecules tend to show multiple peaks in RP‐HPLC.^[ [23] ^] […] The bioconjugation of folic acid with cTAT increased the overall hydrophobicity of the cyclic peptide (%ACN elution change from 24% to 34% for cTAT and cTAT‐folic acid respectively), and the ACN elution profile of the conjugates was similar to that of folic acid (Table 1).

[3] = test system: DHFR activity in Caco‐2 cell lysates; test: DHFR assay in lysates of treated cells; assay type: cell-based; details: for DHFR activity in cell lysates: Caco‐2 treated at acidic pH for 4 h, NADPH absorbance 340 nm, mean, n = 3
Experimental: DHFR kit was purchased from Millipore Sigma and was used to analyze DHFR activity, according to manufacturer's protocol. DHFR enzyme catalyzes the reduction of dihydrofolic acid to tetrahydrofolic acid, which is reversible and NADPH‐dependent reaction.
Dihydrofolic acid + NADPH + H^+ ↔ Tetrahydrofolic acid + NADP^+
Briefly, 20 μM NADPH, 15 μM DHF, 5 μM DHFR, 50 mM Tris (pH 7.5), and 2 mg mL^−1 of cell lysates from Caco‐2 samples treated with 4.5 μM of cTAT‐folic acid conjugates and 20 μM folic acid were added to obtain final volume of 100 μL. DHFR activity at room temperature was monitored by continuously measuring the drop in NADPH concentration, by taking the absorbance at 340 nm for up to 2.5 min.
Figure 3 DHFR activity in units/mg of protein in Caco‐2 cells lysates, performed 4‐h post‐treatment. A) Cotreatment of cells with folic acid, cTAT‐folic acid conjugates, and myricetin and B) treatment of cell lysates with methotrexate (MTX). The values are mean ± standard error for n = 3, *p < 0.01. Units per mg indicate DHFR activity per mg of protein in the sample, where total protein content (mg) in each sample was measured by BCA assay.

[4] = test system: IL‐1β, TNF‐α and IL‐10 production in RAW 264.7 cells; test: Cytokine release (ELISA) upon LPS challenge; assay type: cell-based, mouse; details: RAW264.7, LPS for 1 h, then folic acid 20 μM or cTAT‐folic acid 4.5 μM, n = 3, p < 0.01
Experimental: HD‐11 and RAW 264.7 cells were cultured in folic acid free RPMI containing 10% FBS and 1% penicillin–[…] solution. Cytokine release profile from HD‐11 chicken macrophage cells and RAW 264.7 […] macrophage cells was studied by treating cells in growth phase (≈70% confluency) with 1 μg mL^−1 LPS or with IBDV at TCID50 for 1 h, followed by the addition of folic acid (20 μM) and cTAT‐folic acid conjugates (4.5 μM) in serum‐free, folic acid‐negative RPMI‐1640 medium. After 24 h of incubation, cell culture supernatant were collected, and production of chicken IL‐1β and IFN‐β cytokines in HD‐11 was evaluated in triplicate by ELISA kits purchased from Genorise Scientific Inc. (Berwyn, PA 19 312, United States). The production of mouse IL‐1β, TNF‐α and IL‐10 was quantified in RAW 264.7 cells in triplicates by ELISA assay.
Figure 4 ELISA assay showing A) cytokine expression in HD‐11 cells upon IBDV infection for 1 h, followed by the treatment with folic acid (20 μM) and cTAT‐folic acid conjugates (4.5 μM), and B) cytokine expression (IL‐1β, IL‐10, and TNF‐α) upon LPS (0.5 μg mL^−1) challenge of RAW 264.7 for 1 h, followed by the treatment with folic acid (20 μM) and cTAT‐folic acid conjugates (4.5 μM) for 4 h. The values are mean ± standard error for n = 3, *p < 0.01 and **p < 0.05.

Caco‐2 cells [5] = test: Cellular uptake of fluorophore‐labeled linear and cyclic peptides; assay type: cell-based; details: Caco‐2, fluorophore‐labeled peptides, fluorescence microscopy and cell lysates by microplate reader
Experimental: (§1) Caco‐2 and HD‐11 cells were then seeded in six‐well plates at a density of 2.0 × 10^5 cells per well, in 2 mL of RPMI no folic acid medium. After overnight incubation, the cells were further incubated for 4 h with fluorescent folic acid and with cTAT‐folic acid‐FL conjugates (4.5 μM) at 37 °C in a humidified atmosphere containing 5% CO2. The cells were washed with PBS, and relative fluorescence of the samples was analyzed with the microplate reader using excitation wavelength of 490 nm and emission wavelength of 520 nm.
(§2) Compared with the linear peptides, cyclic analogs are well documented for enhanced physiological stability and resistance to enzymatic degradation.^[ [20], [21], [22] ^]

trypsin = test system: T1, trypsin; test: Trypsin treatment, intact peptide by HPLC; assay type: in vitro ADME; details: isolated enzyme trypsin
T1 construct: purchased Sigma Aldrich / VWR Life Sciences
Excerpt: as §2

HD‐11 cells = test: Cellular uptake of fluorophore‐labeled linear and cyclic peptides; assay type: cell-based, chicken; details: HD‐11, fluorophore‐labeled peptides, fluorescence microscopy and cell lysates by microplate reader
Experimental: as §1, §2

[6] = Trypsin treatment, intact peptide by HPLC; assay type: in vitro ADME; details: isolated enzyme trypsin, trypsin, HPLC chromatogram analysis, read-out: intact peptide after trypsin treatment
Excerpt: as §2

[7] = test system: PCFT expression in Caco‐2 cells; test: WB analysis of PCFT/GAPDH expression; assay type: cell-based; details: Caco‐2, 50 μM, p < 0.01
Experimental: Caco‐2 cells were seeded in six well culture plate at 1 × 10^6 cells per well in RPMI 1640 folic acid negative medium for 24 h followed by the addition of folic acid, cTAT, and cTAT‐folic acid conjugates (0.1–200 μM) for 4 h. 0.5 mL of pre‐chilled RIPA lysis buffer at 4 °C was added to Caco‐2 cells in six‐well plate. The cell samples were scraped and centrifuged at 14 000 × g to remove cellular debris. The amount of protein in cell lysate was measured by using BCA assay. The protein samples (25 μg) were loaded directly onto 12% Tris·HCl polyacrylamide gels using 6X SDS loading buffer (1:1) containing DTT, and gel was run for 1 h at 110 V. After SDS‐PAGE, proteins were transferred to nitrocellulose membrane for 80 min at 110 V (Bio‐rad, Hercules, California, USA). […] Figure 2 PCFT/GAPDH expression in Caco‐2 cells was measured by the WBs as a function of concentration of, A) folic acid, B) cTAT‐folic acid conjugates, and C) comparison of cTAT‐folic acid conjugates (4.5 μM) with unconjugated cTAT + folic acid (4.5 μM).The experiments were replicated twice in triplicates (n = 3) and upon 4 h post‐treatment. […]

Caco‐2 cells [8] = test: Cellular uptake of fluorescein‐labeled folic acid and conjugates; assay type: cell-based; details: Caco‐2, 4.5 μM
Experimental: as §1
The cellular uptake of fluorophore‐labeled folic acid (folic acid‐FL) and cTAT‐folic acid conjugates (cTAT‐folic acid‐FL) was studied at 4.5 μM concentration in Caco‐2 cells, at the physiological and acidic pH.
Figure 1 Cellular uptake of fluorescein‐labeled folic acid and cTAT‐folic acid conjugates (4.5 μM) in Caco‐2 cells in the presence and absence of inhibitors at A) acidic and B) physiological pH. C) WB analysis of PCFT/GAPDH expression in Caco‐2 cells in the presence of 50 μM myricetin. The experiments were replicated in triplicates (n = 3). The values are mean ± standard error for n = 3, *p < 0.01.

[9] = folic acid 20 μM, cTAT‐folic acid 4.5 μM

Compound: Nc1nc(=O)c2nc(CNc3ccc(C(=O)N[C@@H](CCC(=O)O)C(=O)O)cc3)cnc2[nH]1 [Folic acid]
production of proinflammatory cytokines in challenged macrophages [1]: reduced the production of proinflammatory cytokines
ACN elution [%] [2]: 34.06%
DHFR activity in cell lysates, cotreatment with myricetin ([3]; Caco‐2, acidic pH, 4 h, folic acid 20 μM, cTAT‐folic acid 4.5 μM, plus myricetin): 10 units mg^−1 of protein
DHFR activity in MTX‐treated cell lysates ([3]; Caco‐2 lysates plus methotrexate 100 μM): negligible DHFR activity
DHFR activity in cell lysates [3, 9]: 59 units mg^−1 of protein
production of proinflammatory cytokines in challenged macrophages [4]: reduced the production of proinflammatory cytokines

ACN elution [%] [2]: 24%
remaining at 1 h (trypsin): 49%
remaining at 20 h (trypsin): 27%
Compound: N=C(N)NCCC[C@@H]1NC(=O)[C@H](CCCCN)NC(=O)[C@H](CCCCN)NC(=O)[C@H](CCCNC(=N)N)NC(=O)[C@H](CCCNC(=N)N)NC(=O)[C@H](CCC(N)=O)NC(=O)[C@H](CCCNC(=N)N)NC(=O)[C@H](CCCNC(=N)N)NC(=O)[C@H](CCCNC(=N)N)NC(=O)[C@@H](N)CCCCNC(=O)CC[C@@H](C(N)=O)NC(=O)[C@H](Cc2ccc(O)cc2)NC(=O)CNC1=O [cTAT] (H-KRRRQRRKKRGYE-NH2; lactam 1-13)
cellular uptake, cyclic versus linear peptide (Caco‐2 cells [5]): significantly higher cellular uptake
DHFR activity in cell lysates [3, 9]: no significant DHFR activity
cellular uptake, cyclic versus linear peptide (HD‐11 cells): significantly higher cellular uptake

Compound: N=C(N)NCCC[C@H](NC(=O)[C@H](CCCCN)NC(=O)[C@H](CCCCN)NC(=O)[C@H](CCCNC(=N)N)NC(=O)[C@H](CCCNC(=N)N)NC(=O)[C@H](CCC(N)=O)NC(=O)[C@H](CCCNC(=N)N)NC(=O)[C@H](CCCNC(=N)N)NC(=O)[C@H](CCCNC(=N)N)NC(=O)[C@@H](N)CCCCN)C(=O)NCC(=O)N[C@@H](Cc1ccc(O)cc1)C(=O)N[C@@H](CCC(=O)O)C(N)=O [linear peptide] (H-KRRRQRRKKRGYE-NH2; N-terminus assumed)
cellular uptake, cyclic versus linear peptide (Caco‐2 cells [5]): lower uptake at all studied time points
remaining at 1 h ([6]; 1 h incubation): 36%
remaining at 20 h ([6]; 20 h post‐treatment): 15%
cellular uptake, cyclic versus linear peptide (HD‐11 cells): lower uptake at all studied time points

Compound: O=c1c(O)c(-c2cc(O)c(O)c(O)c2)oc2cc(O)cc(O)c12 [myricetin]
PCFT expression compared with the untreated cells [7]: significantly downregulated

Compound: CONH2‐c[EYGRKKRRQRRRK]C(FL)‐NH‐folic acid (sidechain bridge or staple) [cTAT‐folic acid‐FL, fluorescein‐labeled cTAT‐folic acid conjugate, fluorescein on an inserted Cys]
difference in cellular uptake between acidic and physiological pH (Caco‐2 cells [8]): no significant difference
cellular uptake upon ethanol treatment of the cells (Caco‐2 cells [8]; physiological and acidic pH): only partially inhibited
ACN elution [%] [2]: 29.86%
